Where “and” joins values, the source holds several entries; their conditions need not be identical. Equal entries are not always repeated. Calls of active or inactive are those of the source. No rule for the calls is given here.
These compounds were tested against Peptidyl-prolyl cis-trans isomerase FKBP1A (Homo sapiens) (UniProt P62942) (assay: small-molecule binding to FKBP12 – biophysical, NMR detection (AID 608)). Conditions: purified FKBP12.
Peptidyl-prolyl cis-trans isomerase FKBP1A (Homo sapiens), sequence (P62942 whole entry, looked up): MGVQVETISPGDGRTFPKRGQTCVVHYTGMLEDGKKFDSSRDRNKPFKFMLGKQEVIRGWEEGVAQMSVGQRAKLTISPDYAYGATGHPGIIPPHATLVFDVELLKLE
With `CC1=C(/C=C/C(C)=C/C=C/C(C)=C/CO)C(C)(C)CCC1` the Kd was > 4 mM (inactive). `COc1ccc(/C=C2/SC(N)=NC2=O)c(OC)c1` was tested, and the Kd was > 4 mM (inactive). `Cc1cc(C)n(-c2nc(N)cc(=O)[nH]2)n1` was tested, and the Kd was > 4 mM (inactive). `C[C@@H]1CC[C@@]2(OC1)O[C@H]1CC3C4CC[C@H]5C[C@@H](O)CC[C@]5(C)C4CC[C@]3(C)[C@H]1[C@@H]2C` (some centres not stated) was tested, and the Kd was > 4 mM (inactive). `COc1cc2c(cc1OC)[C@@H]1C(=O)c3ccc4oc(C(C)C)cc4c3O[C@@H]1CO2` was tested, and the Kd was > 4 mM (inactive). For `CNC(=O)COc1cccc2c1CCNC2=O`, the Kd was > 4 mM (inactive). For `COC(=O)C[C@@H]1C2(C)C(=O)[C@@H](CC3=C4C=C(OC)O[C@@H](c5ccoc5)[C@]4(C)CCC32)[C@H](O)C1(C)C` (some centres not stated), the Kd was > 4 mM (inactive). In the case of `Cc1nc(SCC#N)c2c3c(sc2n1)CCC3`, the Kd is reported as > 4 mM (inactive). In the case of `O=C1c2ccncc2C(=O)N1CNc1ccccn1`, the Kd is reported as > 4 mM (inactive). With `O=C(Cc1c(F)cccc1Cl)Nc1ccncc1` the Kd was > 4 mM (inactive). `O=C1CCC(=O)N1c1cccc([N+](=O)[O-])c1` was tested, and the Kd was > 4 mM (inactive). With `CCC1=Nc2ccccc2-c2nnc(SC)nc2O1` the Kd was > 4 mM (inactive). With `O=C(O)Cn1cc(C(=O)C2CC2)c2ccccc21` the Kd was > 4 mM (inactive). In the case of `O=c1c2ccccc2nc2n1CCS2`, the Kd is reported as > 4 mM (inactive). In the case of `CC1(C)O[C@H]2[C@H](O)C[C@](O)(C(N)=O)C[C@H]2O1`, the Kd is reported as > 4 mM (inactive). With `O=C(O)c1cccnc1` the Kd was > 4 mM (inactive). With `O=C(Nc1nncs1)c1c(F)c(F)c(F)c(F)c1F` the Kd was > 4 mM (inactive). For `COc1ccccc1-c1noc(-c2ccco2)n1`, the Kd was > 4 mM (inactive). In the case of `CCn1cnc2cc(NCc3ccncc3)ccc21`, the Kd is reported as > 4 mM (inactive). With `O=C(O)C1=C[C@@H](O)[C@@H](O)[C@H](O)C1` the Kd was > 4 mM (inactive). With `Nc1cccc(C(=O)c2ccccc2)c1` the Kd was > 4 mM (inactive). With `CC(=O)NC12CC3CC(CC(O)(C3)C1)C2` the Kd was > 4 mM (inactive). For `Cn1cnc2c(=O)[nH]cc([N+](=O)[O-])c21`, the Kd was > 4 mM (inactive). In the case of `CC(C)(C)P(=O)(O)c1ccccc1`, the Kd is reported as > 4 mM (inactive). `COc1ccc2cc1Oc1ccc(cc1)C[C@H]1c3cc(c(OC)cc3CCN1C)Oc1c(OC)c(OC)cc3c1[C@H](C2)N(C)CC3` was tested, and the Kd was > 4 mM (inactive). `Cc1cc(C)n(-c2ccc(Cl)nn2)n1` was tested, and the Kd was > 4 mM (inactive). In the case of `S=c1[nH]ncn1-c1ccccc1`, the Kd is reported as > 4 mM (inactive). `CON(C)C(=O)Nc1ccc(Cl)cc1` was tested, and the Kd was > 4 mM (inactive). In the case of `CCN1CCc2c(sc(N)c2C#N)C1`, the Kd is reported as > 4 mM (inactive). In the case of `COc1cc(C)c(Cl)cc1S(=O)(=O)N(C)C`, the Kd is reported as > 4 mM (inactive). For `CC1CCC2(OC1)OC1CC3C4CCC5C[C@@H](O)CCC5(C)C4=CCC3(C)C1[C@@H]2C` (some centres not stated), the Kd was > 4 mM (inactive). `COc1cc(-c2csc(C)n2)ccc1O` was tested, and the Kd was > 4 mM (inactive). `Cc1noc(C)c1C(=O)Nc1ccccc1-c1ccccc1` was tested, and the Kd was > 4 mM (inactive). In the case of `COC(=O)Cc1csc(N)n1`, the Kd is reported as > 4 mM (inactive). With `Nc1cc(N)nc(SCc2cccnc2)n1` the Kd was > 4 mM (inactive). In the case of `Oc1ccccc1N1CCCC1`, the Kd is reported as > 4 mM (inactive). For `Nc1ccc2c(c1)OCCO2`, the Kd was > 4 mM (inactive). For `Cc1cc(C(=O)NCc2ccco2)cs1`, the Kd was > 4 mM (inactive). In the case of `c1ccc(CCc2nc(-c3cccnc3)no2)cc1`, the Kd is reported as > 4 mM (inactive). In the case of `COc1ccc([C@H]2Oc3c(I)c(OC)cc(OC)c3C[C@@H]2O)cc1OC`, the Kd is reported as > 4 mM (inactive). In the case of `COC(=O)Cn1c2ccccc2c2nc(C)sc21`, the Kd is reported as > 4 mM (inactive). In the case of `O=C(CC1NCCNC1=O)Nc1ccccc1` (configuration not stated), the Kd is reported as > 4 mM (inactive). `COc1cccc(-c2nc3ccc(O)cc3c(=O)o2)c1` was tested, and the Kd was > 4 mM (inactive). In the case of `CSc1nc(C)cc(-n2ccc(=O)[nH]c2=O)n1`, the Kd is reported as > 4 mM (inactive). In the case of `O=C(c1ccccc1-c1ccccc1)N1CCOCC1`, the Kd is reported as > 4 mM (inactive). For `OCc1ccc(OC(F)(F)F)cc1`, the Kd was > 4 mM (inactive). `Cc1sc2nc(C)n(NC(N)=O)c(=O)c2c1C` was tested, and the Kd was > 4 mM (inactive). For `O=C(O)CCN1CCOCC1`, the Kd was > 4 mM (inactive). With `O=C(c1ccc(F)cc1)N1CCN(c2ncccn2)CC1` the Kd was > 4 mM (inactive). In the case of `Cc1cc(C)n(-c2nncn2N)n1`, the Kd is reported as > 4 mM (inactive). `CC(=O)O[C@@H]1CC2C(C)(C)C(=O)C=C[C@]2(C)C2CC[C@]3(C)C(=CC(=O)O[C@H]3c3ccoc3)[C@@]21C` (some centres not stated) was tested, and the Kd was > 4 mM (inactive). For `OCCN1CCN(C(=S)c2ccc(Cl)cc2)CC1`, the Kd was > 4 mM (inactive). `Cn1nnc2cc(C(=O)NC3=NCCS3)ccc21` was tested, and the Kd was > 4 mM (inactive). For `O=C(O)C(CO)c1ccccc1` (configuration not stated), the Kd was > 4 mM (inactive). With `O=c1[nH]cnc2nn(-c3ccccc3)nc12` the Kd was > 4 mM (inactive). With `CN1CCC=C(C(=O)O)C1` the Kd was > 4 mM (inactive). In the case of `CN1CCN(c2cc(=O)n(C)c(=O)[nH]2)CC1`, the Kd is reported as > 4 mM (inactive). In the case of `NC(=O)CSc1nnc2ccc(-c3ccccn3)nn12`, the Kd is reported as > 4 mM (inactive). `COc1cccc(NC(=O)c2nc3ncccn3n2)c1` was tested, and the Kd was > 4 mM (inactive). For `CC(C)C(C)/C=C/C(C)C1CCC2C3=CC=C4CC(O)CCC4(C)C3CCC21C` (configuration not stated), the Kd was > 4 mM (inactive). With `C=CCNC(=O)c1ccc(Cl)cc1Cl` the Kd was > 4 mM (inactive). `COCC(=O)N1CCCc2ccccc21` was tested, and the Kd was > 4 mM (inactive). `Cc1nc2ccccc2n1S(=O)(=O)N1CCCCC1` was tested, and the Kd was “inactive”. With `Nc1cccc(S(=O)(=O)N2CCCCC2)c1` the Kd was > 4 mM (inactive). In the case of `CC(=O)NC(NC(C)=O)c1ccccc1`, the Kd is reported as > 4 mM (inactive). With `COc1cc2c(cc1OC)C1=C(C#N)CCC(=O)N1CC2` the Kd was > 4 mM (inactive). In the case of `Oc1ccc(/C=C/c2cc(O)cc(O)c2)cc1`, the Kd is reported as > 4 mM (inactive). `NCc1nc2ccccc2s1` was tested, and the Kd was > 4 mM (inactive). In the case of `COc1cc([C@@H]2c3cc4c(c(O)c3C[C@H]3COC(=O)[C@@H]32)OCO4)cc(OC)c1OC`, the Kd is reported as > 4 mM (inactive). For `CC[C@H](/C=C/C(C)C1CCC2C3CCC4=CC(=O)CC[C@]4(C)C3CC[C@]12C)C(C)C` (some centres not stated), the Kd was > 4 mM (inactive). In the case of `COc1c2occc2cc2ccc(=O)oc12`, the Kd is reported as > 4 mM (inactive). For `CC(=O)Oc1ccc2c(c1OC(C)=O)OCC1(O)Cc3c(cc(OC(C)=O)c(OC(C)=O)c3OC(C)=O)C21` (configuration not stated), the Kd was > 4 mM (inactive). With `CC(=O)Nc1cccc(-c2n[nH]c(=S)n2C)c1` the Kd was > 4 mM (inactive). In the case of `OCc1cc(F)cc2c1OCOC2`, the Kd is reported as > 4 mM (inactive). In the case of `CS(=O)(=O)N1CCN(C(=O)c2ccccc2)C1`, the Kd is reported as > 4 mM (inactive). `CC(=O)Nc1cccc(N2CCCC2=O)c1` was tested, and the Kd was > 4 mM (inactive). With `OCC1CCN(c2ncccn2)CC1` the Kd was > 4 mM (inactive). For `COc1ccccc1C(=O)NC1CCN(C)CC1`, the Kd was > 4 mM (inactive). With `Cc1cccc(NC(=O)Nc2cc(C)on2)c1` the Kd was > 4 mM (inactive). For `Cc1nnc(Nc2cccnc2)[nH]c1=O`, the Kd was > 4 mM (inactive). With `COC(=O)/C(=C1\OC(=O)C(c2ccccc2)C1=O)c1ccccc1` (configuration not stated) the Kd was > 4 mM (inactive). In the case of `C=CCc1ccc(OC(=O)c2ccccc2)c(OC)c1`, the Kd is reported as > 4 mM (inactive). In the case of `CSc1nnnn1-c1cccc(O)c1`, the Kd is reported as > 4 mM (inactive). In the case of `S=c1nc(C2CC2)[nH]c2ccccc12`, the Kd is reported as > 4 mM (inactive). `O=C(O)C1COc2ccccc2C1` (configuration not stated) was tested, and the Kd was > 4 mM (inactive). In the case of `NC(=O)c1ccc(N2C(=O)C=CC2=O)cc1Cl`, the Kd is reported as > 4 mM (inactive). `CSc1nc(=O)[nH]c2c1CCC2` was tested, and the Kd was > 4 mM (inactive). For `CC(=O)NC(C)(C)C1CC=C(C)/C(=N\O)C1` (configuration not stated), the Kd was > 4 mM (inactive). For `CCOC(=O)c1c(C)nc2ccccn12`, the Kd was > 4 mM (inactive). `Cc1ccn(S(=O)(=O)c2ccc(C(C)(C)C)cc2)n1` was tested, and the Kd was > 4 mM (inactive). In the case of `Cc1ccc(SCC(=O)N2CCOCC2)cc1`, the Kd is reported as 0.022 mM and 0.012 mM. With `NC(=O)CCn1cnc2ccccc21` the Kd was > 4 mM (inactive). For `COc1cc2c(cc1OC)C(C)NCC2` (configuration not stated), the Kd was > 4 mM (inactive). `CNC(=O)c1c(O)c2ccccc2[nH]c1=O` was tested, and the Kd was > 4 mM (inactive). In the case of `Cc1c(C)n2c(SCC(N)=O)nnc2[nH]c1=O`, the Kd is reported as > 4 mM (inactive). `COc1cc(C(=O)O[C@H]2CC[C@@]3(C)[C@@H]4CC[C@H]5[C@]6(O)C[C@H](O)[C@@]7(O)[C@@H](CN8C[C@@H](C)CC[C@H]8[C@@]7(C)O)[C@]6(O)C[C@@]53OC24O)cc(OC)c1OC` was tested, and the Kd was > 4 mM (inactive). `NS(=O)(=O)c1ccc(N2CCCC2=O)cc1` was tested, and the Kd was > 4 mM (inactive). With `COc1ccc(Cl)cc1NS(=O)(=O)N1CCOCC1` the Kd was “inactive”. With `CN1CCCn2c1nc1c2c(=O)[nH]c(=O)n1C` the Kd was > 4 mM (inactive). With `O=C(O)c1ccc2nccnc2c1` the Kd was > 4 mM (inactive). In the case of `COc1cc2ccc(=O)oc2c(OC)c1OC`, the Kd is reported as > 4 mM (inactive). `CCOc1ccc(C(=O)c2ccc(OC)c(O)c2O)cc1` was tested, and the Kd was > 4 mM (inactive). For `OCc1csc(-c2cccs2)n1`, the Kd was > 4 mM (inactive). `O=C1CC(=O)N(c2cccc(Cl)c2)N1` was tested, and the Kd was > 4 mM (inactive). For `COc1ccc2c(c1)OC/C(=C\c1ccc(OC)c(O)c1)C2=O`, the Kd was > 4 mM (inactive). For `Cc1ccc(Cl)cc1NS(=O)(=O)N1CCOCC1`, the Kd was > 4 mM (inactive). `Cc1ccc2c(c1)CCCN2C(=O)c1c(C)noc1C` was tested, and the Kd was > 4 mM (inactive). In the case of `Cc1nc(-c2ccc(C(=O)O)s2)cs1`, the Kd is reported as > 4 mM (inactive). For `O=C1N=c2ccccc2=C1c1[nH]c(=S)[nH]c1O`, the Kd was > 4 mM (inactive). For `O=C(Nn1c(=S)[nH]c2ccccc2c1=O)c1ccncc1`, the Kd was > 4 mM (inactive). In the case of `O=C(/C=C/c1ccccc1)NC1CCS(=O)(=O)C1` (configuration not stated), the Kd is reported as > 4 mM (inactive). For `c1ccc2sc(CCc3nc4ccccc4s3)nc2c1`, the Kd was “inactive”. With `CCOc1ccc(C)cc1S(=O)(=O)n1ccnc1` the Kd was > 4 mM (inactive). `CC12CN3CC(C)(CN(C1)C3c1cccs1)C2O` (configuration not stated) was tested, and the Kd was > 4 mM (inactive). With `O=C(/C=C/c1ccccc1)c1ccc(O[C@@H]2O[C@H](CO)[C@@H](O)[C@H](O)[C@H]2O)cc1O` the Kd was > 4 mM (inactive). With `CC(=O)Nc1ccc(-c2cn3ccsc3n2)cc1` the Kd was > 4 mM (inactive). With `O=C(O)c1cccnc1N1CCOCC1` the Kd was > 4 mM (inactive).

Reference: PubChem BioAssay AID608 (Sanford-Burnham Center for Chemical Genomics, 2007)
